Values of other authors as cited in US12239131B2, “Plant growth regulator concentrate and use thereof” (FINE AGROCHEMICALS LIMITED, priority 2018, dated 2025).

pKa | SMILES
1.2 | CC1(C)C2CCC1(CS(=O)(=O)O)C(=O)C2 (stereo not drawn) [Camphor sulfonic acid]
1.35 | CC(O)(P(=O)(O)O)P(=O)(O)O [HEDP, (1-hydroxyethane-1,1-diyl)bis(phosphonic acid)]
−1.4 | O=S(=O)(O)CCO [HESA, 2-hydroxyethyl sulphonic acid]
